One block for each molecule: values may come before it.
Columns and labels:
AKR1C2 = molecular target: T1, AKR1C2 (Homo sapiens, UniProt P52895); assay: AKR1C2 enzyme inhibition (oxidation of S-tetralol); assay type: biochemical; conditions: role: substrate; 3.0 mM S-tetralol, 2.3 mM NAD+, 100 mM potassium phosphate pH 7.0, 37 °C
T1 construct: made in house
T1 sequence (P52895 1-323): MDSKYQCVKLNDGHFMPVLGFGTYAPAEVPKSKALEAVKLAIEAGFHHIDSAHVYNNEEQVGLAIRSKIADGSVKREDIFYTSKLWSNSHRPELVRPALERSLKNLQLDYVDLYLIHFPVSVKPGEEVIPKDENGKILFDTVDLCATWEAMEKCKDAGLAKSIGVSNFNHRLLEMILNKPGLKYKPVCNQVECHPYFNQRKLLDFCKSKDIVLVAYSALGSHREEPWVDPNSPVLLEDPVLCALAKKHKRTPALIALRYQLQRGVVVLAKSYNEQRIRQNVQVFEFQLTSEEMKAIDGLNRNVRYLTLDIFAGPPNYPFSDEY
Method: (§1) Enzyme Inhibition Assay. (S)-(+)-1,2,3,4-tetrahydro-1-naphthol (S-tetralol) was purchased from Sigma-Aldrich (St. Louis, MO). Nicotinamide adenine dinucleotide (NAD^+) and nicotinamide adenine dinucleotide phosphate (NADP^+) were purchased from Roche Diagnostics (Indianapolis, IN). Homogeneous recombinant enzymes AKR1C1, AKR1C2, AKR1C3 and AKR1C4 were prepared and purified as previously described.^3 The specific activities of AKR1C3 and AKR1C2 for the oxidation of S-tetralol are 2.0 and 1.5 μmol/(min mg), respectively.
(§2) Assay of Enzyme Activity. The dehydrogenase activities of AKR1C3 and AKR1C2 were determined by measuring the UV absorption of NADH formation at 340 nm using a Beckman DU-640 spectrophotometer. […] After continuously monitoring for 5 min, we recorded the increase in UV absorption using different concentrations of an enzyme to calculate the initial velocity and determine the specific activity of the enzyme.
(§3) IC50 Value Determination. The inhibitory potency for each compound was represented by IC50 values and measured as described before. The IC50 values of [COMPOUND LEFT OUT] and [COMPOUND LEFT OUT] analogues were determined by measuring their inhibition of the NADP+-dependent oxidation of S-tetralol catalyzed by AKR1C3 or AKR1C2. […]

AKR1C3 [1] = molecular target: T2, AKR1C3 (Homo sapiens, UniProt P42330); assay: AKR1C3 enzyme inhibition (oxidation of S-tetralol); assay type: biochemical; conditions: role: substrate
T2 sequence (P42330 1-323): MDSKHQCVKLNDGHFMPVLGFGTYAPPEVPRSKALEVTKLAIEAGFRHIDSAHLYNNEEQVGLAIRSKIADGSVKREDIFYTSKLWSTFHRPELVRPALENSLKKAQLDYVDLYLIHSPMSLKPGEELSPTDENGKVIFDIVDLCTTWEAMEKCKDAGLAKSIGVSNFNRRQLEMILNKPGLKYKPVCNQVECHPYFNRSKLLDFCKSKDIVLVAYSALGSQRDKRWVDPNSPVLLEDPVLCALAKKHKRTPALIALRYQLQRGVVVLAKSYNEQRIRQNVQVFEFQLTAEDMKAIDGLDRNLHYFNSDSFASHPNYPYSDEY
Method: as §1, §2, §3

[2] = test system: 22Rv1 prostate cancer cells; assay: 22Rv1 cell viability (MTS assay); assay type: cell-based; conditions: 72 h
Method: Cell culture and reagents. 22Rv1 cells were purchased from the American Type Culture Collection (ATCC in 2016) and cultured in RPMI 1640 supplemented with 10% Fetal Bovine Serum (FBS, Fisher Scientific, MT35011CV) and Penicillin-Streptomycin Solution (1%, Fisher Scientific, MT30001Cl) at 37 °C in a humidified incubator with 5% carbon dioxide atmosphere. Stock solutions of E3 ligase ligand, lenalidomide 6 (10 mM), PROTAC 5 (25 mM), and AKR1C3 inhibitor 3 (100 mM) were prepared in DMSO.
Cell viability assay. Cells were seeded at a density of 10,000 cells/well in a 96-well plate containing 100 μL growth media per well and were incubated at 37 °C in a humidified incubator with 5% carbon dioxide over ~18-24 hours. Cells were treated with 6, 5, and 3 serially diluted at the indicated concentrations limiting the final DMSO concentration to less than 0.1% and incubated at 37 °C for 72 hours. 10 μL of MTS reagent (CellTiter96®Aqueous One Solution Reagent, Promega, G3580) was added to each well and incubated at the above-mentioned conditions for 4 hours. Absorbance was recorded at OD 490 nm on a Synergy LX multi-mode reader and the viability of cells were plotted as percentage of DMSO control.

AKR1C3 [3] = molecular target: T2, AKR1C3; assay: AKR1C3 protein degradation in 22Rv1 prostate cancer cells (Western blot); assay type: cell-based; design: 22Rv1 prostate cancer cells that express high levels of AKR1C3; host or cells: 22Rv1; conditions: 1 μM and 10 μM; 24 h; in words
Method: Protein Expression via Western Blot. 22Rv1 cells were seeded in a 6-well plate and incubated overnight. Next day, the cells were treated with varying concentrations of 6 (1 and 10 μM) and 5 (0.5, 1, 10, 50, 100, 250, and 500 nM; 1, 10, and 50 μM) for 24 hours and 5 (1 and 10 nM) at different time points (0, 2, 4, 6, 12, 16, 24, 48, and 72 h). Whole cell lysates were extracted in RIPA lysis buffer containing protease inhibitor and EDTA (Fisher Scientific, PI78440). Protein concentrations in each sample was estimated following BCA assay (Pierce™ BCA protein assay kit, Fisher Scientific, PI23227) as per the manufacturer's protocol. Proteins were standardized using RIPA lysis buffer with Laemelli SDS sample buffer (Thermo Scientific, AAJ61337AC) and heated at 1000C for 15 minutes. The proteins were resolved on a 4-12% premade gel (Invitrogen, NW04120BOX) at 60-90 V in 20× Bolt™ MES SDS running buffer (Fisher Scientific, B000202) and transferred onto a nitrocellulose membrane (Invitrogen, IB23001) using iBlot 2. The membranes were blocked with 2.5% non-fat dry milk (Bio-Rad, 1706404) for 1 h, and the membrane was incubated overnight on a rocking platform at 4 °C with the desired primary antibodies against AKR1C3 (mouse mAb, 1:200, Sigma, A6229), AKR1C1/C2 (rabbit mAb, 1:500, Abcam, ab179448), ARv7 (rabbit mAb, 1:500, Abcam, ab198394) and actin (mouse mAb, 1:1,000, ThermoFisher, MA5-11869). The membranes were washed three times, 10 minutes each, with 1×Tris-buffered saline (TBST, Bio-Rad, 1706435) in 0.1% Tween 20, on a rocking platform wherein they were incubated with rabbit anti-mouse IgG (ThermoFisher, 31450) or goat anti-rabbit IgG (Jackson ImmunoResearch, 111-035-003) secondary antibody (1:1,000) horseradish peroxidase conjugate for 1 hour. The membranes were again washed three times with 1×TBST, upon which they were exposed to LI-COR WesternSure PREMIUM chemiluminescent substrate (Fisher Scientific, 50-489-552) and developed in a dark room with Konica Minolta equipment. Bands were quantified by densitometry using ImageJ software and fold change in AKR1C3, AKR1C1/C2, and ARv7 protein expression was determined based on actin controls. […]
The AKR1C3 degradation effect of PROTAC 5 was screened across a range of concentrations to identify a suitable treatment protocol. 22Rv1 cells were treated with increasing concentrations of […], DMSO or lenalidomide 6 at 1 μM and 10 μM for 24 hours, and the degradation profile was determined by Western blot analysis with antibody for AKR1C3.

[4] = substrate: O[C@H]1CCCc2ccccc21; assay: AKR1C2 enzyme inhibition (oxidation of S-tetralol); assay type: biochemical; conditions: other: role: substrate; NADP+-dependent oxidation; pH 7.0; 37.0 °C
Method: as §1, §2, §3

- specific activity of AKR1C2 for oxidation of S-tetralol (AKR1C2): 1.5 µmol/min/mg
- specific activity of AKR1C3 for oxidation of S-tetralol (AKR1C3 [1]; 3.0 mM S-tetralol, 2.3 mM NAD+, 100 mM potassium phosphate pH 7.0, 37 °C): 2.0 µmol/min/mg
- Km (AKR1C3 [1]; NADP+-dependent oxidation): 165 µM
Molecule: O[C@H]1CCCc2ccccc21 [S-tetralol, (S)-(+)-1,2,3,4-tetrahydro-1-naphthol]

- IC50 ([2]; Homo sapiens, 22Rv1, MTS, mean±standard deviation of two independent experiments): > 100 µM
- effect on AKR1C3 expression (AKR1C3 [3]): no effect on AKR1C3 expression
Molecule: Nc1cccc2c1CN(C1CCC(=O)NC1=O)C2=O (stereo not shown) [lenalidomide 6, lenalidomide, reference compound]
- 22Rv1 cell viability activity in words [2]: no activity

B1: AKR1C2 (Homo sapiens) (protein)
chain: MDSKYQCVKLNDGHFMPVLGFGTYAPAEVPKSKALEAVKLAIEAGFHHIDSAHVYNNEEQVGLAIRSKIADGSVKREDIFYTSKLWSNSHRPELVRPALERSLKNLQLDYVDLYLIHFPVSVKPGEEVIPKDENGKILFDTVDLCATWEAMEKCKDAGLAKSIGVSNFNHRLLEMILNKPGLKYKPVCNQVECHPYFNQRKLLDFCKSKDIVLVAYSALGSHREEPWVDPNSPVLLEDPVLCALAKKHKRTPALIALRYQLQRGVVVLAKSYNEQRIRQNVQVFEFQLTSEEMKAIDGLNRNVRYLTLDIFAGPPNYPFSDEY
notes: made in house
- Km [4]: 15 µM
